In paper PMC8129988 (Inorganic Chemistry Frontiers, 2021):

How the values were obtained:
[1] = system: FGFR3-driven UM-UC-14 xenografts; test: UM-UC-14 xenograft experiment; type: in vivo, C.B.17/SCID mice; settings: 10 mg kg^-1 i.p., three times a week for two weeks
Protocol: (§1) Based on this promising in vitro data, the antitumor activity of our novel cobalt(III) complexes Co(acac)2LPon and Co(Meacac)2LPon was evaluated in xenograft mouse models. As a first in vivo experiment, BCR-ABL-driven K-562 cells were injected subcutaneously (s.c.) and treated intraperitoneally (i.p.) with the test compounds at 10 mg kg^−1 or the respective amount of solvent three times a week, for two weeks. Treatment with our novel derivatives was well tolerated and even after repeated i.p. applications no substantial body weight loss was observed (Fig. S13A ^†). […] Consequently, anticancer activity of Co(acac)2LPon was also investigated against FGFR3-driven UM-UC-14 xenografts using the identical treatment regime.
(§2) Fig. 11 In vivo anticancer activity of the investigated cobalt(III) complexes. […] Tumor sizes were evaluated by caliper measurement. […] Statistical significance was calculated by two-way ANOVA with Sidak multiple comparison test with p < 0.05(*); <0.01 (**).
(§3) Eight-to nine-week-old male C.B.17/SCID mice were bread in-house (originally Harlan) and were kept in pathogen-free conditions and controlled environment with 12 h light–dark cycle. […] Tumor growth was evaluated by daily recording of tumor size by caliper measurement. […]

[2] = system: BCR-ABL-driven K-562 xenografts; test: K-562 xenograft experiment; type: in vivo, C.B.17/SCID mice; settings: 10 mg kg^-1 i.p., three times a week for two weeks
Protocol: as §1, §2, §3

[3] = cyclic voltammetry; type: physicochemical; settings: DMF, 0.2 M [n-Bu4N][BF4], 1.5 mM complex, scan rate 100 mV s^-1
Protocol: Since the redox potential is a crucial characteristic for the activation of cobalt(III)-based prodrugs systems, we investigated the novel complexes by cyclic voltammetry in comparison to Co(acac)2LEGFR. Measurements were performed in dimethylformamide (DMF) (+0.2 M [n-Bu4N][BF4]) at a scan speed of 100 mV s^−1. […] Even at a higher scan speed of 1000 mV s^−1, the redox processes were still completely irreversible for all complexes (Fig. S5 ^†).
The compounds were dissolved in DMF (+0.2 M [n-Bu4N][BF4]) to obtain a final concentration of 1.5 mM. Electrochemical experiments were conducted on an EG&G PARC 273A potentiostat/galvanostat with a scan rate of 100–1000 mV s^−1 at room temperature. Argon was bubbled through the solution before every measurement to remove oxygen. A three-electrode configuration cell was used with a glassy carbon electrode as working electrode, which was polished before every measurement. The reference electrode was Ag/Ag^+/ACN (10 mM AgNO3) and the auxiliary electrode was a platinum wire. The potentials were referenced to an internal standard redox couple of ferrocenium/ferrocene and calculated to the NHE (E1/2 = +0.72 V vs. NHE).[63] […] Redox potentials measured relative to the Ag/AgCl/KCl (3.5 M) reference electrode and converted to the NHE using +0.205 V. Measurements were at least repeated three times and the mean values were calculated.

CC(=O)C=C(C)[O-].CC(=O)C=C(C)[O-].Cc1ccc(C(=O)Nc2ccc(CNCCN)c(C(F)(F)F)c2)cc1C#Cc1cnc2cccnn12.O=C(O)C(F)(F)F.[Co+3] [Co(acac)2LPon, Bis(2,4-pentanedionato)N-(4-(((2-aminoethyl)amino)methyl)-3-(trifluoromethyl)phenyl)-3-(imidazo[1,2-b]pyridazin-3-ylethynyl)-4-methylbenzamide cobalt(III) 2,2,2-trifluoroacetate]
body weight [1]: without significant impact on body weight
tumor volumes vs control [1]: significant reduction of tumor volumes
tumor growth vs solvent controls [2]: significantly reduced tumor growth
cathodic peak potential (Co(III) to Co(II), irreversible) [3]: −315 mV vs. NHE
